Holding throughout (type): cell-based, human
Assay [1] relates to S. typhimurium-induced PMN transepithelial migration, T84 cells. Description: Inhibition of S. typhimurium-induced PMN transepithelial migration across T84 monolayers. The following applies: T84 pre-treated: baicalein 48 hours, caffeic acid 24 hours. From the text: It was further examined if hepoxilin A3 acts in a gradient fashion to drive PMN migration from the basolateral to the apical epithelial surface. For these experiments, the physiologically directed (basolateral-to-apical) PMN transepithelial migration assay using cell culture inserts of inverted T84 monolayers has been used (McCormick et al., 1993; Parkos et al., 1992). Human PMN were isolated from normal volunteers, as described elsewhere (Parkos et al., 1992; Henson and Oades, 1975). […] PMN which completely traversed the monolayer were represented as the number of PMN (CE/ml in a total volume of 1 ml). Values were expressed as the mean and SD of an individual experiment done in triplicate repeated at least 3 times.
Hepoxilin A3 is formed via the 12-lipoxygenase (LO) metabolism pathway of arachidonic acid. Therefore, the involvement of the 12-LO pathway in the ability of the enteric pathogen, S. typhimurium, to induce PMN transepithelial migration and elicit PEEC secretion was tested. […] For 12-LO inhibition, HBSS(+)-washed T84 cell monolayers were incubated in the presence baicalein [stock concentration at 1 mM in DMSO] for 48 hours at 37° C. Subsequently, S. typhimurium SL1344 was added to the apical surface of the T84 monolayers and after an incubation of 1 hour at 37° C., the cells were washed free of non-adherent bacteria and then processed for the PMN transmigration assay. […] For 5-LO inhibition, the T84 cells were washed with HBSS(+) and then were incubated for 24 hours in the presence of caffeic acid (stock concentration at 22 mM in DMSO). Both inhibitors were purchased form Biomol, Plymouth Meeting, Pa.
In each instance, the T84 cell monolayers were incubated for […] in the presence of the inhibitor prior to the addition of S. typhimurium.

Another assay has as its system hepoxilin A3 secretion. As to the kind of experiment: Hepoxilin A3 release from P. aeruginosa infected A549 cell monolayers. The note with it: A549 treated with inhibitor prior to P. aeruginosa infection; listed as 12-LO inhibitor. The text has this: It was further determined whether similar hepoxilin A3 recruitment of PMN by apically attached pathogens might occur at other mucosal surfaces. Pseudomonas aeruginosa is the most prominent bacterial spp. present during chronic infection in cystic fibrosis and chronic obstructive pulmonary disease patients and is accompanied by severe inflammation, including the emigration of PMN to the airway lumen (Pizurki et al., 2000; Jahn et al., 2000; Weiss, S. 1989). As a model for the airway epithelium the A549 cell line was used. This cell line is capable of forming a polarized barrier, and is widely employed as a model for the airway epithelial surface (Smart and Casale, 1994). […] Finally, the secretion of hepoxlin A3 in vitro was quantified using this A549 model system. For these experiments, A549 lung epithelial cells (ATTC) were grown in F12K media (Invitrogen) with 10% FBS, and maintained in culture similar to the T84 cell line. The wild type P. aeruginosa (PAO1) was used for infection of A549 after overnight aerobic growth (Luria broth) at 37° C.
The apical compartment of A549 cell monolayers treated for 90 minutes with P. aeruginosa had approximately 210 pmoles in the apical compartment and nearly 130 pmoles in the basolateral compartment. […]

In another assay the test system is IL-8 secretion. As to the kind of experiment: IL-8 secretion by S. typhimurium infected T84 cell monolayers. The note with it: S. typhimurium infected T84, baicalein 1 μM.

Structures are written as SMILES. Entries after “also recorded” stand apart in the source; their conditions may differ.

`O=c1cc(-c2ccccc2)oc2cc(O)c(O)c(O)c12` [baicalein]: the “S. typhimurium-induced PMN transepithelial migration with lipoxygenase inhibitor” value in assay [1] is on record as “attenuated S. typhimurium-induced PMN transepithelial migration in a concentration-dependent fashion; also recorded: dose dependent decrease”. Also, in the assay with hepoxilin A3 secretion, the “hepoxilin A3 levels released” value is “no detectable levels of hepoxilin A3”. The same compound returned an IL-8 secretion in the assay with IL-8 secretion of 577 ± 35 pg/mL.
